Columns and labels:
[1] = Extraction of ethanol from an aqueous solution by ionic liquid (HPLC); format: physicochemical; details: ethanol in aqueous solution after mixing 3 mL of about 31 g/L ethanol with 150 microliters (5 vol %) ionic liquid, overnight equilibration, control 655
Description: (§1) Ethanol and isobutanol concentration in the solution was measured using HPLC as described above following thorough mixing and overnight equilibration of the contents of the vial.

[2] = Extraction of isobutanol from an aqueous solution by ionic liquid (HPLC); format: physicochemical; details: isobutanol in aqueous solution after mixing 3 mL of about 31 g/L isobutanol with 150 microliters (5 vol %) ionic liquid, overnight equilibration, control 436
Description: as §1

[3] = system: Saccharomyces cerevisiae (W1362 20A); assay: Glucose Uptake Index of Saccharomyces cerevisiae culture in YPD medium with ionic liquid added; details: 5% (v/v) ionic liquid added after 4 h, further 16 h at 30° C., GUI of control without ionic liquid 79.0 (Ex. 1-5) or 100 (Ex. 6-8)

Molecule	mM Ethanol [1]	GUI of Sample (Glucose Utilization Index in the presence of 5% (v/v) of the ionic liquid phase) [3]	mM isobutanol [2]	also measured
1-Butyl-3-methylimidazolium levulinate [Example 5]	596 mM	–	–	–
CCOCC[N+](C)(C)CCN1C(=O)CCC1C (centres unmarked) [Example 2, 1-(N,N,N-dimethyl(ethylethoxy)aminoethyl)-5-methyl-pyrrolidine-2-one hexafluoropropanesulfonate]	–	34.0	–	mM Ethanol ([1]; listed as [MeDMEEAP] [HFPS]): 656 mM; mM isobutanol ([2]; listed as [MeDMEEAP] [HFPS]): 422 mM
CCOCC[N+](C)(C)CCN1C(=O)CCC1C (centres unmarked) [Example 3, 1-(N,N,N-dimethyl(ethylethoxy)aminoethyl)-5-methyl-pyrrolidine-2-one bis(trifluoromethane)sulfonamide]	–	80.4	–	mM Ethanol ([1]; listed as [MeDMEEAP] [Tf2N]): 637 mM; mM isobutanol ([2]; listed as [MeDMEEAP] [Tf2N]): 398 mM
COCC[N+](C)(C)CCN1C(=O)CCC1C (centres unmarked) [Example 4, 1-(N,N,N-dimethyl(methylethoxy)aminoethyl)-5-methylpyrrolidin-2-one hexafluoropropanesulfonate]	645 mM	21.9	423 mM	–
CCC[N+](C)(C)CCN1C(=O)CCC1C.O=S(=O)([N-]S(=O)(=O)C(F)(F)F)C(F)(F)F (centres unmarked) [Example 6, 1-(N,N,N-dimethylpropylaminoethyl)-5-methylpyrrolidone-2-one bis(trifluoromethane)sulfonamide]	–	100	387 mM	–
COCC[N+](C)(C)CCN1C(=O)CCC1C.O=S(=O)([N-]S(=O)(=O)C(F)(F)F)C(F)(F)F (centres unmarked) [Example 7, 1-(N,N,N-dimethyl(methylethoxy)aminoethyl)-5-methylpyrrolidone-2-one bis(trifluoromethane)sulfonamide]	643 mM	100	389 mM	–
CC1CCC(=O)N1CC[N+](C)(C)CCO.O=S(=O)([N-]S(=O)(=O)C(F)(F)F)C(F)(F)F (centres unmarked) [Example 8, 1-(N,N,N-dimethyl(hydroxyethyl)aminoethyl)-5-methylpyrrolidone-2-one bis(trifluoromethane)sulfonamide]	–	89.3	417 mM	–

From patent US20100143995A1, “Process for Fermentive Preparation of Alcohols and Recovery of Product” (E. I. DU PONT DE NEMOURS AND COMPANY, priority 2008, published 2010)
